Patent US7635675B2, “Micro-particle fatty acid salt solid dosage formulations for therapeutic agents” (Biocon Limited, priority 2003, dated 2009)

Experiment: USP dissolution test of fatty acid salts released from tablets and capsules
Assay type: physicochemical
Details: tablet formulations where the fatty acids have been milled to optimum particle size (FIGS. 3-8); USP apparatus 2, 50 rpm, 500 mL pH 7.4 phosphate buffer
Protocol: The formulations of the invention preferably have a high dissolution rate. The dissolution rate can be determined as follows: Use USP dissolution apparatus 2 (paddles) at 50 rpm with 500 mL of pH 7.4 phosphate buffer.
USP 26, <711> DISSOLUTION Test Description:
This test is provided to determine compliance with the dissolution requirements where stated in the individual monograph for a tablet or capsule dosage form. Of the types of apparatus described therein, use apparatus 2. […] Where water or a medium with a pH of less than 6.8 is specified as the Medium in the individual monograph, the same Medium specified may be used with the addition of purified pepsin that results in an activity of 750,000 Units or less per 1000 mL. For media with a pH of 6.8 or greater, pancreatin can be added to produce not more than 1750 USP Units of protease activity per 1000 mL. USP Reference Standards <11> (Dissolution Calibrator, Disintegrating). (Dissolution Calibrator, nondisintegrating) are used to calibrate the equipment.
Apparatus 2: The assembly consists of the following: a covered vessel made of glass or other inert, transparent material; a motor; a metallic drive shaft; and a stirring element. The vessel is partially immersed in a suitable water bath of any convenient size or placed in a heating jacket. […]

| Compound | dissolution (release) of fatty acid salt from tablet formulations |
| --- | --- |
| CCCCCCCCCC(=O)[O-].[Na+] [capric acid sodium salt] | readily released |
| CCCCCCCCCCCC(=O)[O-].[Na+] [lauric acid sodium salt] | readily released |
